Test results: ChEMBL document CHEMBL5137050, “Hematopoietic Progenitor Kinase 1 in Tumor Immunology: A Medicinal Chemistry Perspective” (J Med Chem, 2022)

Experiments:
[1] = molecular target: T1, Mitogen-activated protein kinase kinase kinase kinase 1 (Homo sapiens, UniProt Q92918); test: Inhibition of HPK1 (unknown origin) preincubated for 15 mins measured after 90 mins by ADP-Glo kinase assay
[2] = molecular target: T1, Mitogen-activated protein kinase kinase kinase kinase 1; test: Inhibition of HPK1 in human Jurkat E6.1 cells assessed as inhibition of SLP76 phosphorylation treated for 4 hrs by HTRF assay; assay type: cell-based
[3] = molecular target: T2, Tyrosine-protein kinase ZAP-70 (Homo sapiens, UniProt P43403); test: Inhibition of ZAP70 (unknown origin)
T2 sequence (P43403 whole entry): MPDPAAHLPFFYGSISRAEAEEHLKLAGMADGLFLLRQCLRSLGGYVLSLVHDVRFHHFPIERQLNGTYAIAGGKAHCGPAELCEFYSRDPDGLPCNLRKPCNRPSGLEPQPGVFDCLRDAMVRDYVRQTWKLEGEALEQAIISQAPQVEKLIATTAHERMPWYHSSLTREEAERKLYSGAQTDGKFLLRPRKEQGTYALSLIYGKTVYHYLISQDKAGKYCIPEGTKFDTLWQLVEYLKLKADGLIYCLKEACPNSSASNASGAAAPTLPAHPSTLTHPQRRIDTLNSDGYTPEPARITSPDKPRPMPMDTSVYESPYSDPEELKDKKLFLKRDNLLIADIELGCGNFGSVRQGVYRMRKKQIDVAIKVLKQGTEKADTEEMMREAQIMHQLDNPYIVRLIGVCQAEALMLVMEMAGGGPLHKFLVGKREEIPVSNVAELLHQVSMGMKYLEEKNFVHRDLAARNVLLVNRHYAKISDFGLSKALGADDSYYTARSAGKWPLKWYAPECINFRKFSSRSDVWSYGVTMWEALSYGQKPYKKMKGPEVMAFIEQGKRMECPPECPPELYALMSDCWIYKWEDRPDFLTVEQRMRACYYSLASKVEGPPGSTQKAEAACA

[4] = molecular target: T3, Tyrosine-protein kinase ITK/TSK (Homo sapiens, UniProt Q08881); test: Inhibition of ITK (unknown origin)
T3 sequence (Q08881 whole entry): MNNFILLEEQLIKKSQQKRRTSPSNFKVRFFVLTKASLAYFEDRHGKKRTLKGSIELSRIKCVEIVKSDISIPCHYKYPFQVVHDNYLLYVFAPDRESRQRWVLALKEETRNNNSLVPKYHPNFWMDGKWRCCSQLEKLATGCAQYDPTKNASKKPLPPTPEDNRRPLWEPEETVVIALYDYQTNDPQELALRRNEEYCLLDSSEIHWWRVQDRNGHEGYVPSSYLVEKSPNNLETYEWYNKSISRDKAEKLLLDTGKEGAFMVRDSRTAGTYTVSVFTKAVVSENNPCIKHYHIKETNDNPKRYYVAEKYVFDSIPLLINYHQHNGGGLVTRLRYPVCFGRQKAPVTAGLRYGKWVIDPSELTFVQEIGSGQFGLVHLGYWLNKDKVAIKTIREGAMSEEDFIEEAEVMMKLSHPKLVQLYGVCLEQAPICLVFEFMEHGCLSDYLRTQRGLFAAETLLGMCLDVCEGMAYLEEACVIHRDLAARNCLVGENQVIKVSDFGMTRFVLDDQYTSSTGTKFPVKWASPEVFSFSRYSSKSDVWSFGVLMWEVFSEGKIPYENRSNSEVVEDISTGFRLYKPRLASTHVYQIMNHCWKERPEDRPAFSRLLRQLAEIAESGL

[5] = molecular target: T1, Mitogen-activated protein kinase kinase kinase kinase 1; test: Inhibition of full-length phosphorylated HPK1 (unknown origin)
[6] = molecular target: T1, Mitogen-activated protein kinase kinase kinase kinase 1; test: Inhibition of full-length unphosphorylated HPK1 (unknown origin) by scintillation proximity assay
[7] = molecular target: Tyrosine-protein kinase Lck (Homo sapiens, UniProt P06239); test: Inhibition of LCK (unknown origin)
Chain of Tyrosine-protein kinase Lck (P06239 whole entry): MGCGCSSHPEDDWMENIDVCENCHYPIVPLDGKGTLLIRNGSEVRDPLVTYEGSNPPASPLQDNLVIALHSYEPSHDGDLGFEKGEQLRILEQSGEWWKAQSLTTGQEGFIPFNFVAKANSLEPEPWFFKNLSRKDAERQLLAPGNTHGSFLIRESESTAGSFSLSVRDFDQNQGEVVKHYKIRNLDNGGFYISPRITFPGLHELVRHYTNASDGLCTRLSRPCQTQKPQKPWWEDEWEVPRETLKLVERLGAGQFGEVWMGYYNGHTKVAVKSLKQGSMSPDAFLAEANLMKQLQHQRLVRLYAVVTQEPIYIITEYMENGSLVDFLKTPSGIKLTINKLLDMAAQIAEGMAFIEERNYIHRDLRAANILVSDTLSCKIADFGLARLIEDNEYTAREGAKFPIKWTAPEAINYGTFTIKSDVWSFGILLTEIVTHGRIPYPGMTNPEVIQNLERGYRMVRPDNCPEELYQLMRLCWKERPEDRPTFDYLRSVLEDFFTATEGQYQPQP

T1 sequence (Q92918 whole entry): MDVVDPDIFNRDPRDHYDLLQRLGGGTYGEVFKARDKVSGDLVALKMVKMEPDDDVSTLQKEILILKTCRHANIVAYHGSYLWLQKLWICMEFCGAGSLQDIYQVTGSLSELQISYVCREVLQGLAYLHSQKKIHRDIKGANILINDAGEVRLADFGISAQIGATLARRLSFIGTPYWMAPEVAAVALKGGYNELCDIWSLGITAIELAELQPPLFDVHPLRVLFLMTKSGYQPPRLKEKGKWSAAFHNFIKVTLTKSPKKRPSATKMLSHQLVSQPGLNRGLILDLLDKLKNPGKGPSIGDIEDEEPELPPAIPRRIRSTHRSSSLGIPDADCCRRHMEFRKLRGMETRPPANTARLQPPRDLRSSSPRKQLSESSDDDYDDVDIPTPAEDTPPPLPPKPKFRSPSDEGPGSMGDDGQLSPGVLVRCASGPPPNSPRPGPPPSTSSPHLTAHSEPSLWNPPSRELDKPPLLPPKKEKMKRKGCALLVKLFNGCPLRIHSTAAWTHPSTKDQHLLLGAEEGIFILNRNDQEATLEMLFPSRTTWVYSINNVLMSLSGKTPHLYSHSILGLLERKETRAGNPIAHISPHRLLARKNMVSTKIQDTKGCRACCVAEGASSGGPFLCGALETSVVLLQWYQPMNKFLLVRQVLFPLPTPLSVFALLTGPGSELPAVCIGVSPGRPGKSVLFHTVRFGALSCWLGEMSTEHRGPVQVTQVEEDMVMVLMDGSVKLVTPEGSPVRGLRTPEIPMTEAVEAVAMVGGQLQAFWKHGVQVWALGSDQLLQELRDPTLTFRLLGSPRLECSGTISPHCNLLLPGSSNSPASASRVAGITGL

Row | IC50 [1] [µM] | IC50 [2] [µM] | IC50 [3] [µM] | IC50 [4] [µM] | IC50 [5] [µM] | IC50 [6] [µM] | IC50 [7] [µM] | Structure (SMILES)
1 | < 0.1 | < 1 | – | – | – | – | – | CN1CCC(c2ncc(-c3cnc(N)c(OCc4cccc(C#CC(C)(C)O)c4)c3)s2)CC1
2 | – | – | > 49.5 | > 49.5 | 29 | 1.2 | > 49.5 | Cc1[nH]c2nnc(C)n2c(=O)c1CC(=O)Nc1ncc(Cc2ccccc2F)s1
